One experiment deals with T1, Angiotensin II receptor (Rattus norvegicus, UniProt P29089+P25095+P35351).
T1 sequence (P29089 whole entry): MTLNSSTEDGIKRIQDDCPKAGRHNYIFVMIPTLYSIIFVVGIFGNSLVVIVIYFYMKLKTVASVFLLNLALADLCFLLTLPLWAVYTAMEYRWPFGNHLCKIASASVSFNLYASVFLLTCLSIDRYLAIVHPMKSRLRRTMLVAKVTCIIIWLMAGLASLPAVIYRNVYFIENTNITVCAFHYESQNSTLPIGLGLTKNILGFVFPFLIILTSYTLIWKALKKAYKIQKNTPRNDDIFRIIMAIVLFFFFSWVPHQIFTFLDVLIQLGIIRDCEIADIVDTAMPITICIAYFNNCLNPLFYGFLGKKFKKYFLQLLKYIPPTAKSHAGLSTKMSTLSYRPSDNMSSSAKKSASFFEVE
T1 sequence (P25095 whole entry): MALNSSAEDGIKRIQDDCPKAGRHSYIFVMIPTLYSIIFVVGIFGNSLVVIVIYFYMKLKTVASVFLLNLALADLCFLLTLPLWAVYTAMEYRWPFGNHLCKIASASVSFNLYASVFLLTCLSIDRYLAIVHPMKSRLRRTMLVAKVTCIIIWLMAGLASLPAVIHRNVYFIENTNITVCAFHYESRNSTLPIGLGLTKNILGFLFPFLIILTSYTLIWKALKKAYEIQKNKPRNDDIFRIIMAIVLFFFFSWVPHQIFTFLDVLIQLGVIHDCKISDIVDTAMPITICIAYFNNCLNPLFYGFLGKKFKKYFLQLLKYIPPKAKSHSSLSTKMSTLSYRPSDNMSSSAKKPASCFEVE
T1 sequence (P35351 whole entry): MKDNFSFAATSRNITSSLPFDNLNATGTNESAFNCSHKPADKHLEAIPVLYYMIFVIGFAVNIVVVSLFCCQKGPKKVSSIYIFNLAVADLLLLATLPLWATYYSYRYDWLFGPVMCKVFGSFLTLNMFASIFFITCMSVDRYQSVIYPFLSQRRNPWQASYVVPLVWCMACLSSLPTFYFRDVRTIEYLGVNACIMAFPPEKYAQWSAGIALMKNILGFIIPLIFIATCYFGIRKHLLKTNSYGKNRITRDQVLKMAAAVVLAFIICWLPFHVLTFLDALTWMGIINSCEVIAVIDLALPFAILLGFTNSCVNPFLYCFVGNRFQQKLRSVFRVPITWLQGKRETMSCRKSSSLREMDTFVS
The experiment is described as follows: Angiotensin II receptor antagonist activity was determined by 50% inhibition of specific binding of [3H]angiotensin II (2 nM) to rat adrenal cortical microsomes.

Experiment [1] relates to Rattus norvegicus. The experiment is described as follows: The compound was tested for antihypertensive activity in renal hypertensive rat after intravenous administration. Format: functional.
For experiment [2], the system named is Rattus norvegicus. The experiment is described as follows: The compound was tested for antihypertensive activity in renal hypertensive rat after oral administration. Format: functional.

A word on the IC50: it is the concentration needed to halve the response being measured. On Angiotensin II receptor, `CCCc1nc(C(F)(F)C(F)(F)C(F)(F)F)c(CO)n1Cc1ccc(-c2ccccc2C(=O)O)cc1` gave an IC50 of 74 nM. This lies in the double-digit nanomolar range. `CCCc1nc(C(F)(F)C(F)(F)C(F)(F)F)c(C(=O)O)n1Cc1ccc(-c2ccccc2-c2nn[nH]n2)cc1` showed an ED30 in the experiment with Rattus norvegicus [1] of 0.62 mg/kg. Turning to `CCCc1nc(C(F)(F)C(F)(F)C(F)(F)C(F)(F)F)c(CO)n1Cc1ccc(-c2ccccc2C(=O)O)cc1`, the half-inhibitory concentration (IC50) at Angiotensin II receptor was determined as 290 nM.

As to `CCCc1nc(C(F)(F)F)c(CO)n1Cc1ccc(-c2ccccc2C(=O)O)cc1`, the IC50 on Angiotensin II receptor is 130 nM. `CCCc1nc(C(F)(F)C(F)(F)C(F)(F)F)c(CO)n1Cc1ccc(-c2ccccc2-c2nn[nH]n2)cc1` gave an IC50 on Angiotensin II receptor of 13 nM. This IC50 is about 10-fold lower than that of the compound before. `CCCc1nc(C(F)(F)F)c(C(=O)O)n1Cc1ccc(-c2ccccc2-c2nn[nH]n2)cc1`: the ED30 in the experiment with Rattus norvegicus [1] worked out at 0.01 mg/kg; in the experiment with Rattus norvegicus [2] it was 0.79 mg/kg. Turning to `CCCc1nc(C(F)(F)C(F)(F)F)c(C(=O)O)n1Cc1ccc(-c2ccccc2-c2nn[nH]n2)cc1`, the ED30 in the experiment with Rattus norvegicus [1] turned out to be 0.042 mg/kg; with Rattus norvegicus [2] it was 0.21 mg/kg. Consider `CCCCc1nc(Cl)c(C(=O)O)n1Cc1ccc(-c2ccccc2-c2nn[nH]n2)cc1` [CARBOXYLIC ACID METABOLITE], for which the ED30 in the experiment on Rattus norvegicus [1] is 0.038 mg/kg; with Rattus norvegicus [2] it was 0.66 mg/kg. Consider `CCCc1nc(C(F)(F)F)c(CO)n1Cc1ccc(-c2ccccc2-c2nn[nH]n2)cc1`, for which the IC50 at Angiotensin II receptor worked out at 6.4 nM. `CCCc1nc(C(F)(F)C(F)(F)F)c(CO)n1Cc1ccc(-c2ccccc2C(=O)O)cc1`: the IC50 on Angiotensin II receptor is given as 48 nM.

As for `CCCc1nc(C(F)(F)C(F)(F)F)c(CO)n1Cc1ccc(-c2ccccc2-c2nn[nH]n2)cc1`, the IC50 at Angiotensin II receptor stood at 1.2 nM. For `CCCc1nc(C(F)(F)C(F)(F)C(F)(F)C(F)(F)C(F)(F)C(F)(F)F)c(CO)n1Cc1ccc(-c2ccccc2C(=O)O)cc1`, the IC50 at Angiotensin II receptor amounted to 2500 nM. Against the preceding compound, the IC50 is about 2100-fold higher.

For the origin of these results see ChEMBL document CHEMBL1126477 (Bioorg Med Chem Lett, 1993).
